According to patent US11643428B2, “Therapeutic drug for neurodegenerative disease and application thereof” (SHANGHAI PHARMACEUTICALS HOLDING CO., LTD., priority 2018, dated 2023):

How the values were obtained:
[1] = tested on: neuroblastoma cells SK-N-SH; assay: Total Aβ in supernatant of SK-N-SH cells by ELISA; type: cell-based; settings: 24 hours
Method: Culture of neuroblastoma cells SK-N-SH and Aβ detection: SK-N-SH cells were cultured in DMEM, plated to 24 well plates and cultured for 24 hours, then PL201 (0, 30, 100, and 300 μM) was added. After co-incubation for 24 hours, the protein level of total Aβ in supernatant was detected by ELISA.
Culture of neuroblastoma cells SK-N-SH and Aβ detection: SK-N-SH cells were cultured in DMEM, plated to 24 well plates and cultured for 24 hours, then PL202 (0, 30, and 100 μM) was added. After co-incubation for 24 hours, protein level of total Aβ in supernatant was detected by ELISA.
Culture of neuroblastoma cells SK-N-SH and Aβ detection: SK-N-SH cells were cultured in DMEM, plated to 24 well plates and cultured for 24 hours, then PL171 (300 μM) was added. After co-incubation for 24 hours, protein level of total Aβ in supernatant was detected by ELISA.
Culture of neuroblastoma cells SK-N-SH and Aβ detection: SK-N-SH cells were cultured in DMEM, plated to 24 well plates and cultured for 24 hours, then PL172 (300 μM) was added. After co-incubation for 24 hours, protein level of total Aβ in supernatant was detected by ELISA.

mouse BV-2 cell line = assay: Expression of inflammatory factors in LPS-treated BV-2 cells by QPCR; type: cell-based; settings: PL202 30, 100, 300 μM, LPS 300 ng/ml, 24 hours
Method: Neuroinflammation in the brain of AD is one of the causes of cognitive decline. Microglial cells are the key cells that mediate neuroinflammation. In this example, the inventors have explored whether PL201 has the effect of inhibiting neuroinflammation by detecting the expressions of inflammatory factors on mouse BV-2 cell line.
BV-2 cells were cultured in DMEM, plated to 24 well plates and cultured for 24 hours, then PL201 (0, 10, 30, and 100 μM) and LPS (300 ng/ml) were added. After co-incubation for 24 hours, Trizol was used to extract RNA and the expressions of related inflammatory factors were detected by QPCR.
Mouse BV-2 cells were cultured in DMEM, plated to 24 well plates and cultured for 24 hours, then PL202 (0, 30, 100, and 300 μM) and LPS (300 ng/ml) were added. After co-incubation for 24 hours, Trizol was used to extract RNA and the expressions of related inflammatory factors were detected by QPCR.

COc1cc(/C=C/C(=O)NC2OC(C)C(O)C(O)C2O)ccc1O [PL171, (1-amino-β-L-rhamnopyranosyl) ferulamide]
Aβ production (total Aβ in supernatant) ([1]; 300 μM): significantly inhibited

COc1cc(/C=C/C(=O)NC2OC(C)C(O)C(O)C2O)ccc1O [PL172, (1-amino-α-L-rhamnopyranosyl) ferulamide]
Aβ production (total Aβ in supernatant) ([1]; 300 μM): significantly inhibited

COc1cc(/C=C/C(=O)OC2OC(C)C(O)C(O)C2O)ccc1O [PL202, (β-L-rhamnopyranosyl) ferulic acid ester]
expression of inflammatory factor IL-1β (mouse BV-2 cell line): significantly inhibited | expression of inflammatory factor iNOS (mouse BV-2 cell line): significantly inhibited | Aβ production (total Aβ in supernatant) ([1]; 30, 100 μM): significantly inhibited
